# Literature values in patent publication US10875826B2, “Process for the manufacture of SNAC (salcaprozate sodium)” (Emisphere Technologies, Inc., priority 2006, dated 2020).
# Structures can show the parent of a compound that is named as a salt.
compound,measurement,setting,value
"CCCCCN(C)CCC(O)(P(=O)(O)O)P(=O)(O)O [Ibandronate sodium, 3-(N-methyl-N-pentyl)-amino-1-hydroxypropane-1,1-diphosphonic acid, monosodium salt, monohydrate]",solubility in organic solvents,organic solvents,practically insoluble
same,solubility in water,water,freely soluble
